Data published in publication PMC6368365, “Didehydro-Cortistatin A Inhibits HIV-1 by Specifically Binding to the Unstructured Basic Region of Tat” (mBio, 2019).

Tested on: recombinant Tat transactivation of HIV-1 transcription in OM10.1 cells
Test: Transactivation assay with recombinant Tat in OM10.1 cell model of HIV-1 latency
Assay type: cell-based
Conditions: Tat 1 μg, dCA 250 nM
From the text: The production of functional recombinant HIV-1 Tat in Escherichia coli is not trivial as the proper folding of Tat is extremely important for activity, and when expressed by itself, Tat agglomerates mostly because of oxidation of the cysteine residues in the cysteine region. Tat can also adhere to different surfaces and anionic polymers via its charged and hydrophobic residues ([21], [22]). We produced and purified recombinant HIV Tat HXB3 (residues 1 to 89) with a 6×His tag in the C-terminus in E. coli. For this, we have partially optimized the arginine codon usage and changed the rare AGA into codon CGT at arginine positions 7, 53, 56, and 87 of Tat (Fig. 1A). […] After Tat purification using nickel affinity chromatography followed by size exclusion filtration, Tat protein size was analyzed by SDS-PAGE followed by Coomassie blue staining (Fig. 1B). The specificity of the bands was confirmed by Western blotting using anti-Tat serum and anti-His antibody (Fig. 1B). The purity of Tat was further verified by size exclusion chromatography and high-performance liquid chromatography (HPLC) (Fig. 1C and D). […]
FIG 1 Purity and activity of the monomeric His-tagged Tat HXB3 and analysis of its direct binding to dCA. […] Statistical significance was determined using one-way ANOVA with post hoc Tukey’s test. ns, not significant; ***, P < 0.0001; *, P < 0.01. […]

| SMILES | inhibition of recombinant Tat transactivation (HIV mRNA) |
| --- | --- |
| C[C@@](Cc1ccc(O)c(O)c1)(NN)C(=O)O.O [SCM, S-(−)-carbidopamonohydrate, reference compound] | no activity |
| CN(C)C1CC23CCC4(O2)C(=CCC2(C)C(c5ccc6ccncc6c5)=CCC24)C=C3C(O)C1O (centres unmarked) [dCA, didehydro-cortistatin A] | inhibited transcriptional activity of Tat |
